Experimental data from patent publication US20240279233A1, “MACROCYCLIC TAK1 INHIBITORS” (Aqilion AB, priority 2021, published 2024).
In brackets after ≈: the same amount, converted by molar mass. Several values for one entry are separate records, joined by “and”; a condition that tells them apart may be missing. Equal values may be shown once. Read-outs that look alike come from different tables or passages of the source.

Assays:
[1] = amide bond, 14-membered ring
[2] = molecular target: human recombinant TAK1-TAB1 Kinase (TAK1 (1-303) and TAB1 (437-end)) (Homo sapiens (Human), UniProt O43318); experiment: TAK1 biochemical ADP-Glo kinase assay; details: MBP substrate
Outline: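 Inhibition of human recombinant TAK1-TAB1 kinase was measured with a Promega ADP-Glo luminescence assay in 384-well plates. Compounds in 5% DMSO were pre-incubated 10 min with 2 μl TAK1-TAB1 (7.5 ng/μl) in buffer of Tris pH 7.5, MgCl2, DTT and BSA. MBP substrate and ATP were then added for 1 hour at room temperature. ADP-Glo reagent and kinase detection substrate followed, luminescence was read on an Envision, and IC50 came from non-linear regression.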

[3] = Solubility assay in phosphate buffer; details: phosphate buffer 100 mM, pH 7.4, room temperature, 20-24 h, LC-UV
Procedure: The aqueous solubility of selected example compounds was determined as follows; 6 μL of DMSO stock solution of the selected example was added to 594 μL phosphate buffer (100 mM, pH 7.4). The resulting mixture was equilibrated over night (20-24 h, Alligator Shaker, room temperature). The mixture was then filtered (Millex LH 0.45 μm) and the concentration/solubility was determined by LC-UV quantification.

[4] = 10 μM ATP, read-out: TAK1 Mean IC50 (nM) @ 10 μM ATP
[5] = phosphate buffer, pH 7.4, aqueous buffer, kinetic from dmso stock, Solubility (μM)
[6] = 1 mM ATP, read-out: TAK1 Mean IC50 (nM) @ 1 mM ATP

Chain of human recombinant TAK1-TAB1 Kinase (TAK1 (1-303) and TAB1 (437-end)) (O43318 other isoform, or with tags, fused parts or gaps): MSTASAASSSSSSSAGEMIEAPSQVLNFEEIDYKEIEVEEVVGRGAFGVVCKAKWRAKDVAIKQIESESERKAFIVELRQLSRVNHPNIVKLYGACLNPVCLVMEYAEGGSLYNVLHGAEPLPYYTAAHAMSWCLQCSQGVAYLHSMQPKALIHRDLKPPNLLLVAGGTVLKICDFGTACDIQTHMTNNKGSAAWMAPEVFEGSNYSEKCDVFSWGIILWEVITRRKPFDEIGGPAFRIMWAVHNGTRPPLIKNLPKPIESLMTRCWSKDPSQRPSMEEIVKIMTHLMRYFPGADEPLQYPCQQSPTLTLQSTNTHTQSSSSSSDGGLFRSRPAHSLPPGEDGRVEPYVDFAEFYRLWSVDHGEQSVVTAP

SMILES | IC50 [2, 4] | solubility [3, 5] | further results
CN(C)C(=O)c1cccc2nc3n(c12)C1(CCCCNC(=O)c2cccc(c2)C(=O)N3)CC1 |  |  | ring closure, yield after HPLC ([1]; from CN(C)C(=O)c1cccc2nc(NC(=O)c3cccc(C(=O)O)c3)n(C3(CCCCN)CC3)c12, TCFH/NMI, MeCN/DMF, 0.31 mM, 25.0 °C, 16.0 h): 18%
C[C@@H]1CCCCNC(=O)c2cccc(c2)C(=O)Nc2nc3cccc(-c4cn(C)nn4)c3n21 [Example 66, (R,E)-11-methyl-1^7-(1-methyl-1H-1,2,3-triazol-4-yl)-1^2,1^3-dihydro-1^1H-2,6-diaza-1(2,1)-benzo[d]imidazola-4(1,3)-benzenacycloundecaphane-3,5-dione] | 3 nM | 5.2 µM (≈ 2.31 µg/mL) | ring closure, yield after HPLC ([1]; from C[C@H](CCCCN)n1c(NC(=O)c2cccc(C(=O)O)c2)nc2cccc(-c3cn(C)nn3)c21, HATU/DIEA, THF, 0.48 mM, 25.0 °C, 78.0 h): 5%
CC1CCCCNC(=O)c2cccc(c2)C(=O)Nc2nc3cccc(-c4ccc[nH]c4=O)c3n21 (stereo not shown) |  |  | ring closure, yield after HPLC ([1]; from CC(CCCCN)n1c(NC(=O)c2cccc(C(=O)O)c2)nc2cccc(-c3ccc[nH]c3=O)c21, TCFH/NMI, DMF, 3.6 mM, 1.0 h): 21%
CN1CCN(Cc2ccc3c(c2)nc2n3CCCCCNC(=O)c3cccc(n3)C(=O)N2)CC1 [Example 102, (E)-1^5-((4-methylpiperazin-1-yl)methyl)-1^2,1^3-dihydro-1^1H-2,6-diaza-1(2,1)-benzo[d]imidazola-4(2,6)-pyridinacycloundecaphane-3,5-dione] | 9 nM | 88 µM (≈ 40.6 µg/mL) | ring closure, yield after HPLC ([1]; from CN1CCN(Cc2ccc3c(c2)nc(NC(=O)c2cccc(C(=O)O)n2)n3CCCCCN)CC1, T3P/DIEA, DMF, 50.0 mM, 25.0 °C, 1.5 h): 30%
Cc1nnc(-c2cccc3nc4n(c23)[C@H](C)CCCCNC(=O)c2cccc(c2)C(=O)N4)n1C [Example 57, (R,E)-1^7-(4,5-dimethyl-4H-1,2,4-triazol-3-yl)-11-methyl-1^2,1^3-dihydro-1^1H-2,6-diaza-1(2,1)-benzo[d]imidazola-4(1,3)-benzenacycloundecaphane-3,5-dione] | 3 nM | 95 µM (≈ 43.5 µg/mL) | ring closure, yield after HPLC ([1]; from Cc1nnc(-c2cccc3nc(NC(=O)c4cccc(C(=O)O)c4)n([C@H](C)CCCCN)c23)n1C, HATU/DIEA, THF, 0.5 mM, 50.0 °C, 23.0 h): 31%; IC50 [2, 6]: 6 nM
CN1CCN(Cc2ccc3c(c2)nc2n3CCCCCNC(=O)c3cc(ccc3F)C(=O)N2)CC1 |  |  | ring closure, yield after HPLC ([1]; from CN1CCN(Cc2ccc3c(c2)nc(NC(=O)c2ccc(F)c(C(=O)O)c2)n3CCCCCN)CC1, TCFH/NMI, DMF/MeCN, 2.2 mM, 25.0 °C, 2.0 h): 16%
CC(=O)c1cc(C(=O)N(C)C)c2c(c1)nc1n2[C@H](C)CCCCNC(=O)c2cccc(c2)C(=O)N1 |  |  | ring closure, yield after HPLC ([1]; from CC(=O)c1cc(C(=O)N(C)C)c2c(c1)nc(NC(=O)c1cccc(C(=O)O)c1)n2[C@H](C)CCCCN, HATU/DIEA, THF, 0.49 mM, 25.0 °C, 120.0 h): 34%
Cc1noc(-c2cccc3nc4n(c23)[C@@H](C)CCCCNC(=O)c2cccc(c2)C(=O)N4)n1 |  |  | ring closure, yield after HPLC ([1]; from Cc1noc(-c2cccc3nc(NC(=O)c4cccc(C(=O)O)c4)n([C@@H](C)CCCCN)c23)n1, TCFH/NMI, MeCN, 0.23 mM, 25.0 °C, 16.0 h): 92%
CC1CCCCNC(=O)c2cccc(c2)C(=O)Nc2nc3cccc(-c4ccc[n+]([O-])c4)c3n21 (stereo not shown) [Example 33, (E)-3-(11-methyl-3,5-dioxo-1^2,1^3-dihydro-1^1H-2,6-diaza-1(2,1)-benzo[d]imidazola-4(1,3)-benzenacycloundecaphane-1^7-yl)pyridine 1-oxide] | 8 nM |  | ring closure, yield after HPLC ([1]; from CC(CCCCN)n1c(NC(=O)c2cccc(C(=O)O)c2)nc2cccc(-c3ccc[n+]([O-])c3)c21, HATU/DIEA, THF, 0.46 mM, 32.0 h, 2 steps): 7%
Cc1ccc2c(c1)nc1n2CCCCCNC(=O)c2cccc(c2)C(=O)N1 [Example 4, 1^5-methyl-1^1H-2,6-diaza-1(2,1)-benzo[d]imidazola-4(1,3)-benzenacycloundecaphane-3,5-dione] | 7 nM | 0.2 µM (≈ 0.0725 µg/mL) | ring closure, yield after HPLC ([1]; from Cc1ccc2c(c1)nc(NC(=O)c1cccc(C(=O)O)c1)n2CCCCCN, HATU/TEA, MeCN, 50.0 °C, 16.0 h, 2 steps): 39%
CC1CCCCNC(=O)c2cccc(c2)C(=O)Nc2nc3cccc(C(=O)N(C)C)c3n21 (stereo not shown) |  |  | ring closure, yield after HPLC ([1]; from CC(CCCCN)n1c(NC(=O)c2cccc(C(=O)O)c2)nc2cccc(C(=O)N(C)C)c21, TCFH/NMI, MeCN/DMF, 1.6 mM, 1.0 h): 12%
O=C1NCCCCCn2c(nc3cc(F)ccc32)NC(=O)c2cccc1c2 [Example 99, (E)-1^5-fluoro-1^2,1^3-dihydro-1^1H-2,6-diaza-1(2,1)-benzo[d]imidazola-4(1,3)-benzenacycloundecaphane-3,5-dione] | 4 nM | 0.2 µM (≈ 0.0733 µg/mL) | ring closure, yield after HPLC ([1]; from NCCCCCn1c(NC(=O)c2cccc(C(=O)O)c2)nc2cc(F)ccc21, HATU/DIEA, THF, 0.5 mM, 50.0 °C, 16.0 h): 16%
COc1ncccc1-c1cccc2nc3n(c12)CCCCCNC(=O)c1cccc(c1)C(=O)N3 [Example 28, (E)-1^7-(2-methoxypyridin-3-yl)-1^2,1^3-dihydro-1^1H-2,6-diaza-1(2,1)-benzo[d]imidazola-4(1,3)-benzenacycloundecaphane-3,5-dione] | 366 nM | 1.1 µM (≈ 0.501 µg/mL) | ring closure, yield after HPLC ([1]; from COc1ncccc1-c1cccc2nc(NC(=O)c3cccc(C(=O)O)c3)n(CCCCCN)c12, HATU/DIEA, DMF, 0.49 mM, 16.0 h): 19%
O=C1NCCOCCn2c(nc3ccccc32)NC(=O)c2cccc1c2 [Example 5, 1^1H-9-oxa-2,6-diaza-1(2,1)-benzo[d]imidazola-4(1,3)-benzenacycloundecaphane-3,5-dione] | 11 nM |  | ring closure, yield after HPLC ([1]; from NCCOCCn1c(NC(=O)c2cccc(C(=O)O)c2)nc2ccccc21, HATU/TEA, MeCN, 14.0 mM, 50.0 °C, 16.0 h, 2 steps): 16%; IC50 [2, 6]: 247 nM; solubility [3]: 15.2 µM (≈ 5.33 µg/mL)
CC1CCCCNC(=O)c2cccc(c2)C(=O)Nc2nc3ccccc3n21 (stereo not shown) [Example 6, 11-methyl-1^1H-2,6-diaza-1(2,1)-benzo[d]imidazola-4(1,3)-benzenacycloundecaphane-3,5-dione] | 5 nM | 2.5 µM (≈ 0.906 µg/mL) | ring closure, yield after HPLC ([1]; from CC(CCCCN)n1c(NC(=O)c2cccc(C(=O)O)c2)nc2ccccc21, HATU/TEA, MeCN, 4.3 mM, 50.0 °C, 16.0 h, 2 steps): 39%
C[C@@H]1CCCCNC(=O)c2cccc(c2)C(=O)Nc2nc3ccc(Cl)c(C(=O)N(C)C)c3n21 |  |  | ring closure, yield after HPLC ([1]; from C[C@H](CCCCN)n1c(NC(=O)c2cccc(C(=O)O)c2)nc2ccc(Cl)c(C(=O)N(C)C)c21, HATU/DIEA, THF, 0.5 mM, 60.0 °C, 16.0 h): 5.3% and 5.7%
C[C@H]1CCCCNC(=O)c2cccc(c2)C(=O)Nc2nc3ccc(Cl)c(C(=O)N(C)C)c3n21 |  |  | ring closure, yield after HPLC ([1]; from C[C@@H](CCCCN)n1c(NC(=O)c2cccc(C(=O)O)c2)nc2ccc(Cl)c(C(=O)N(C)C)c21, HATU/DIEA, THF, 0.5 mM, 60.0 °C, 16.0 h): 7.1% and 6.3%
CN(C)[C@@H]1CCN(C(=O)c2cccc3c2N2CCCCCNC(=O)c4cccc(c4)C(=O)/N=C/2N3)C1 [Example 23, (R,E)-1^7-(3-(dimethylamino)pyrrolidine-1-carbonyl)-1^2,1^3-dihydro-1^1H-2,6-diaza-1(2,1)-benzo[d]imidazola-4(1,3)-benzenacycloundecaphane-3,5-dione] | 8 nM | 83.3 µM (≈ 40.7 µg/mL) | 
C[C@H]1CCCCNC(=O)c2cccc(c2)C(=O)Nc2nc3cccc(-c4ncn(C)n4)c3n21 [Example 84, (S)-11-methyl-1^7-(1-methyl-1H-1,2,4-triazol-3-yl)-1^1H-2,6-diaza-1(2,1)-benzo[d]imidazola-4(1,3)-benzenacycloundecaphane-3,5-dione] | 5 nM | 15 µM (≈ 6.65 µg/mL) | 
C[C@H]1CCCCNC(=O)c2cccc(c2)C(=O)Nc2nc3cccc(-c4ncnn4C)c3n21 [Example 86, (S,E)-11-methyl-1^7-(1-methyl-1H-1,2,4-triazol-5-yl)-1^1H-2,6-diaza-1(2,1)-benzo[d]imidazola-4(1,3)-benzenacycloundecaphane-3,5-dione] | 4 nM | 33 µM (≈ 14.6 µg/mL) | IC50 [2, 6]: 9 nM
C[C@@H]1CCCCNC(=O)c2cccc(c2)C(=O)Nc2nc3cccc(S(=O)(=O)N(C)C)c3n21 [Example 46, (R,E)-N,N,11-trimethyl-3,5-dioxo-1^2,1^3-dihydro-1^1H-2,6-diaza-1(2,1)-benzo[d]imidazola-4(1,3)-benzenacycloundecaphane-1^7-sulfonamide] | 2 nM | 10 µM (≈ 4.7 µg/mL) | ring closure, yield after HPLC ([1]; from C[C@H](CCCCN)n1c(NC(=O)c2cccc(C(=O)O)c2)nc2cccc(S(=O)(=O)N(C)C)c21, HATU/DIEA, THF, 0.5 mM, 50.0 °C, 16.0 h): 24%
C[C@H]1CCCCNC(=O)c2cccc(c2)C(=O)/N=C2\Nc3cc(C(C)(C)O)cc(C(=O)N(C)C)c3N21 [Example 123, (S,E)-1^5-(2-hydroxypropan-2-yl)-N,N,11-trimethyl-3,5-dioxo-1^2,1^3-dihydro-1^1H-2,6-diaza-1(2,1)-benzo[d]imidazola-4(1,3)-benzenacycloundecaphane-1^7-carboxamide] | 4 nM | 90 µM (≈ 44.2 µg/mL) | IC50 [2, 6]: 11 nM
